# According to patent US12064522B2, “Low temperature process for preparing silicon oxide coated pharmaceuticals” (priority 2020, dated 2024):
# Assay: Flowability (Flow Function, FF) of API particles
# Format: physicochemical
row,Structure (SMILES),Flowability (Flow Function; FF) of uncoated particles
1,CC(=O)Nc1ccc(O)cc1 [Acetaminophen],2.61
2,CC(C)Cc1ccc(C(C)C(=O)O)cc1 (stereo not drawn) [ibuprofen],4.23
3,Cn1c(=O)c2[nH]cnc2n(C)c1=O [theophylline],10
